Measured values reported in ChEMBL document CHEMBL1201862, “PubChem BioAssay data set” (2004).
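1) Cells in 96-well plates. 2) Compound, 48 h, 5 concentrations. 3) Linear interpolation between surrounding doses. 4) Unreached endpoint = highest concentration. GI50: concentration for 50% inhibition of growth.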 Active and inactive are the calls of the source. Cut-off read from the data, not from the text of the source: active = GI50 up to about 1.1 µM and inactive = higher.

Legend:
Test in all cases: growth of human tumour cells (NCI), 48 h
Malme-3M = system: Malme-3M
NCI-H23 = system: NCI-H23
OVCAR-8 = system: OVCAR-8
TK-10 = system: TK-10
CCRF-CEM = system: CCRF-CEM
M14 = system: M14
BT-549 = system: BT-549
PC-3 = system: PC-3
UO-31 = system: UO-31
SNB-75 = system: SNB-75
SF-295 = system: SF-295
UACC-257 = system: UACC-257
HCT-15 = system: HCT-15
A498 = system: A498
OVCAR-4 = system: OVCAR-4
SF-268 = system: SF-268
HCT-116 = system: HCT-116
RPMI-8226 = system: RPMI-8226
HL-60 = system: HL-60
COLO 205 = system: COLO 205
HOP-92 = system: HOP-92
NCI-H522 = system: NCI-H522
MDA-N = system: MDA-N
LOX IMVI = system: LOX IMVI
SK-MEL-2 = system: SK-MEL-2
DU-145 = system: DU-145
RXF 393 = system: RXF 393
SNB-19 = system: SNB-19
HOP-62 = system: HOP-62
MDA-MB-435 = system: MDA-MB-435
ACHN = system: ACHN
SK-MEL-5 = system: SK-MEL-5
A549 = system: A549
EKVX = system: EKVX
U-251 = system: U-251
K562 = system: K562
SR = system: SR
NCI/ADR-RES = system: NCI/ADR-RES
HT-29 = system: HT-29
SF-539 = system: SF-539
HCC 2998 = system: HCC 2998
UACC-62 = system: UACC-62
MOLT-4 = system: MOLT-4
SN12C = system: SN12C
SK-MEL-28 = system: SK-MEL-28
IGROV-1 = system: IGROV-1
T47D = system: T47D
NCI-H226 = system: NCI-H226
SK-OV-3 = system: SK-OV-3
Hs-578T = system: Hs-578T
NCI-H460 = system: NCI-H460
OVCAR-5 = system: OVCAR-5
SW-620 = system: SW-620
MDA-MB-231 = system: MDA-MB-231
786-0 = system: 786-0
CAKI-1 = system: CAKI-1
KM12 = system: KM12
OVCAR-3 = system: OVCAR-3
MCF7 = system: MCF7

`C[N+]12CCCCC1C(COc1cccc3cccnc13)CCC2` (stereo not drawn) was tested, and the GI50 (Malme-3M) was > 100 µM (inactive), the GI50 (NCI-H23) was > 100 µM (inactive) and the GI50 (OVCAR-8) was > 100 µM (inactive). The GI50 (TK-10) was > 100 µM (inactive), the GI50 (CCRF-CEM) was > 100 µM (inactive) and the GI50 (M14) was > 100 µM (inactive). The GI50 (BT-549) was 42 µM (inactive), the GI50 (PC-3) was > 100 µM (inactive) and the GI50 (UO-31) was > 100 µM (inactive). The GI50 (SNB-75) was > 100 µM (inactive), the GI50 (SF-295) was > 100 µM (inactive) and the GI50 (UACC-257) was > 100 µM (inactive). The GI50 (HCT-15) was over 100 µM, the GI50 (A498) was > 100 µM (inactive) and the GI50 (OVCAR-4) was > 100 µM (inactive). For the same compound, the GI50 (SF-268) was > 100 µM (inactive), the GI50 (HCT-116) was 61.2 µM (inactive) and the GI50 (RPMI-8226) was 34.4 µM (inactive). The GI50 (HL-60) was > 100 µM (inactive), the GI50 (COLO 205) was > 100 µM (inactive) and the GI50 (HOP-92) was 15.9 µM (inactive). The GI50 (NCI-H522) was > 100 µM (inactive), the GI50 (MDA-N) was 93.5 µM (inactive) and the GI50 (LOX IMVI) was 93.5 µM (inactive). For the same compound, the GI50 (SK-MEL-2) was > 100 µM (inactive), the GI50 (DU-145) was > 100 µM (inactive) and the GI50 (RXF 393) was > 100 µM (inactive). For the same compound, the GI50 (SNB-19) was > 100 µM (inactive), the GI50 (HOP-62) was 72.9 µM (inactive) and the GI50 (MDA-MB-435) was > 100 µM (inactive). The GI50 (ACHN) was > 100 µM (inactive), the GI50 (SK-MEL-5) was 75 µM (inactive) and the GI50 (A549) was > 100 µM (inactive). For the same compound, the GI50 (EKVX) was > 100 µM (inactive), the GI50 (U-251) was > 100 µM (inactive) and the GI50 (K562) was 77.4 µM (inactive). For the same compound, the GI50 (SR) was > 100 µM (inactive), the GI50 (NCI/ADR-RES) was > 100 µM (inactive) and the GI50 (HT-29) was 53.1 µM (inactive). The GI50 (SF-539) was > 100 µM (inactive), the GI50 (HCC 2998) was > 100 µM (inactive) and the GI50 (UACC-62) was > 100 µM (inactive). The GI50 (MOLT-4) was > 100 µM (inactive), the GI50 (SN12C) was > 100 µM (inactive) and the GI50 (SK-MEL-28) was > 100 µM (inactive). The GI50 (IGROV-1) was 75.5 µM (inactive), the GI50 (T47D) was > 100 µM (inactive) and the GI50 (NCI-H226) was 59.6 µM (inactive). The GI50 (SK-OV-3) was > 100 µM (inactive), the GI50 (Hs-578T) was > 100 µM (inactive) and the GI50 (NCI-H460) was 58.6 µM (inactive). For the same compound, the GI50 (OVCAR-5) was > 100 µM (inactive), the GI50 (SW-620) was > 100 µM (inactive) and the GI50 (MDA-MB-231) was 91.2 µM (inactive). The GI50 (786-0) was > 100 µM (inactive), the GI50 (CAKI-1) was > 100 µM (inactive) and the GI50 (KM12) was > 100 µM (inactive). The GI50 (OVCAR-3) was 26.6 µM (inactive) and the GI50 (MCF7) was > 100 µM (inactive).
In the case of `C/C=C/[C@H]1O[C@@](O)([C@@H](C)[C@H](O)[C@H](C)[C@H]2OC(=O)/C(OC)=C/C(C)=C/[C@@H](C)[C@@H](O)[C@@H](CC)[C@@H](O)[C@H](C)C/C(C)=C/C=C/[C@@H]2OC)C[C@H](OC2CC(O)C(O)C(C)O2)[C@@H]1C` (stereo partly drawn), the GI50 (Malme-3M) was < 0.0075 µM (active), the GI50 (NCI-H23) was 0.406 µM (active) and the GI50 (OVCAR-8) was < 0.0075 µM (active). The GI50 (TK-10) was 9.48 µM (inactive), the GI50 (CCRF-CEM) was < 0.0075 µM (active) and the GI50 (M14) was < 0.0075 µM (active). For the same compound, the GI50 (BT-549) was < 0.0075 µM (active), the GI50 (PC-3) was < 0.0075 µM (active) and the GI50 (UO-31) was < 0.0075 µM (active). For the same compound, the GI50 (SNB-75) was 8.59 µM (inactive), the GI50 (SF-295) was < 0.0075 µM (active) and the GI50 (UACC-257) was < 0.0075 µM (active). The GI50 (HCT-15) was under 0.0075 µM, the GI50 (A498) was 5.01 µM (inactive) and the GI50 (OVCAR-4) was 0.244 µM (active). The GI50 (SF-268) was < 0.0075 µM (active), the GI50 (HCT-116) was < 0.0075 µM (active) and the GI50 (RPMI-8226) was < 0.0075 µM (active). The GI50 (HL-60) was < 0.0075 µM (active), the GI50 (COLO 205) was < 0.0075 µM (active) and the GI50 (HOP-92) was 0.19 µM (active). For the same compound, the GI50 (NCI-H522) was < 0.0075 µM (active), the GI50 (MDA-N) was < 0.0075 µM (active) and the GI50 (LOX IMVI) was < 0.0075 µM (active). The GI50 (SK-MEL-2) was < 0.0075 µM (active), the GI50 (DU-145) was 0.256 µM (active) and the GI50 (RXF 393) was 0.121 µM (active). The GI50 (SNB-19) was 3.42 µM (inactive), the GI50 (HOP-62) was < 0.0075 µM (active) and the GI50 (MDA-MB-435) was < 0.0075 µM (active). For the same compound, the GI50 (ACHN) was < 0.0075 µM (active), the GI50 (SK-MEL-5) was < 0.0075 µM (active) and the GI50 (A549) was < 0.0075 µM (active). The GI50 (EKVX) was < 0.0075 µM (active), the GI50 (U-251) was < 0.0075 µM (active) and the GI50 (K562) was < 0.0075 µM (active). The GI50 (SR) was < 0.0075 µM (active), the GI50 (NCI/ADR-RES) was < 0.0075 µM (active) and the GI50 (HT-29) was < 0.0075 µM (active). For the same compound, the GI50 (SF-539) was < 0.0075 µM (active), the GI50 (HCC 2998) was < 0.0075 µM (active) and the GI50 (UACC-62) was < 0.0075 µM (active). The GI50 (MOLT-4) was < 0.0075 µM (active), the GI50 (SN12C) was 7.78 µM (inactive) and the GI50 (SK-MEL-28) was 0.114 µM (active). For the same compound, the GI50 (IGROV-1) was < 0.0075 µM (active), the GI50 (T47D) was < 0.0075 µM (active) and the GI50 (NCI-H226) was < 0.0075 µM (active). The GI50 (SK-OV-3) was 8.04 µM (inactive), the GI50 (Hs-578T) was < 0.0075 µM (active) and the GI50 (NCI-H460) was < 0.0075 µM (active). The GI50 (OVCAR-5) was 3.49 µM (inactive), the GI50 (SW-620) was < 0.0075 µM (active) and the GI50 (MDA-MB-231) was < 0.0075 µM (active). For the same compound, the GI50 (786-0) was < 0.0075 µM (active), the GI50 (CAKI-1) was < 0.0075 µM (active) and the GI50 (KM12) was < 0.0075 µM (active). The GI50 (OVCAR-3) was < 0.0075 µM (active) and the GI50 (MCF7) was < 0.0075 µM (active).
